Earlier results in US20180228856A1, “Antibacterial combination of Basil oil and Taiwan red cypress oil for preventing drug-resistant S. aureus infections and the use thereof” (priority 2017, published 2018).
Values after ≈ are worked out from the molar mass of the structure shown.

System: VISA strain Z172
Conditions: strain characteristic of Z172

Row | Compound | minimum inhibitory concentration (MIC) [µg/mL]
1 | CCCCCCCCCC(=O)N[C@@H](Cc1c[nH]c2ccccc12)C(=O)N[C@H](CC(N)=O)C(=O)N[C@@H](CC(=O)O)C(=O)N[C@@H]1C(=O)NCC(=O)N[C@@H](CCCN)C(=O)N[C@@H](CC(=O)O)C(=O)N[C@H](C)C(=O)N[C@@H](CC(=O)O)C(=O)NCC(=O)N[C@H](CO)C(=O)N[C@@H]([C@H](C)CC(=O)O)C(=O)N[C@@H](CC(=O)c2ccccc2N)C(=O)O[C@@H]1C [daptomycin] | > 4
2 | CN[C@H](CC(C)C)C(=O)N[C@H]1C(=O)N[C@@H](CC(N)=O)C(=O)N[C@H]2C(=O)N[C@H]3C(=O)N[C@H](C(=O)N[C@H](C(=O)O)c4cc(O)cc(O)c4-c4cc3ccc4O)[C@H](O)c3ccc(c(Cl)c3)Oc3cc2cc(c3O[C@@H]2O[C@H](CO)[C@@H](O)[C@H](O)[C@H]2O[C@H]2C[C@](C)(N)[C@H](O)[C@H](C)O2)Oc2ccc(cc2Cl)[C@H]1O [vancomycin] | 4 (≈ 2.76 µM)
